ChEMBL document CHEMBL3259798, “A novel Lipoprotein lipase (LPL) agonist rescues the enzyme from inhibition by angiopoietin-like 4 (ANGPTL4)” (Bioorg Med Chem Lett, 2014)
The source made the active and inactive calls. The calls are words filed in the database; no cut-off is given here.

Experiments:
[1] = target: T1, Lipoprotein lipase (Homo sapiens) (UniProt P06858); test: Activation of lipoprotein lipase (unknown origin) assessed as reversal of ANGPTL4-mediated enzyme inhibition treated with ANGPTL4 for 30 mins followed by substrate addition measured after 20 mins by spectrophotometric analysis
T1 sequence (whole entry): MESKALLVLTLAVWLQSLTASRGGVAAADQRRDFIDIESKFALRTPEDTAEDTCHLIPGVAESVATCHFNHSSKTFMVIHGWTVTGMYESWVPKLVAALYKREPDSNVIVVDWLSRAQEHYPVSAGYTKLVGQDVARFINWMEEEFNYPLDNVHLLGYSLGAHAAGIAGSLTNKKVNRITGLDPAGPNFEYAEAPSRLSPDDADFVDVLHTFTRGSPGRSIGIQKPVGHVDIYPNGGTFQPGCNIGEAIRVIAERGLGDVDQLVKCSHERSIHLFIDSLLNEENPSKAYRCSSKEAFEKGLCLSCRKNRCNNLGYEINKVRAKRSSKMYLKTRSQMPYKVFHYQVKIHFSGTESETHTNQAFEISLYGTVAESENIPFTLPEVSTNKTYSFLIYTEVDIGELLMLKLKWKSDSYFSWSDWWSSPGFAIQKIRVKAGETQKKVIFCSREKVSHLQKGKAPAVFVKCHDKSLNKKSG

[2] = target: T1, Lipoprotein lipase (Homo sapiens); test: Agonist activity at lipoprotein lipase (unknown origin) using p-nitrophenylbutyrate as substrate by spectrophotometric analysis relative to NO-1886
[3] = target: T1, Lipoprotein lipase (Homo sapiens); test: Agonist activity at lipoprotein lipase (unknown origin) using p-nitrophenylbutyrate as substrate by spectrophotometric analysis relative to control; design: concentration or dose not given beside the values
[4] = target: T1, Lipoprotein lipase (Homo sapiens); test: Agonist activity at lipoprotein lipase (unknown origin) using p-nitrophenylbutyrate as substrate at 40 uM by spectrophotometric analysis
[5] = target: T1, Lipoprotein lipase (Homo sapiens); test: Agonist activity at lipoprotein lipase (unknown origin) using p-nitrophenylbutyrate as substrate by spectrophotometric analysis

Q: `CC1(C)CC1(C(=O)NCCCn1ccnc1)c1ccc(F)cc1` (configuration not stated) was tested. Which Activity [1] did it give?
A: Dose-dependent effect

Q: What about the fold change (FC) [2] of the same compound?
A: 2

Q: What about the Activity [3] of the same compound?
A: 342%

Q: How did the Activity [4] turn out when `CC1(C(=O)NCCCn2ccnc2)CC1(Cl)Cl` (configuration not stated) was run?
A: Active

Q: And the Activity [1]?
A: Dose-dependent effect

Q: And the Activity [5]?
A: Dose-dependent effect

Q: What about the Activity [3] of the same compound?
A: 196%

Q: `CC1(C(=O)NCCCn2cnc(Cl)c2)CC1(Br)Br` (configuration not stated) was tested. Which Activity [3] did it give?
A: 122%

Q: How did the Activity [3] turn out when `CC1(C(=O)NCCCN2CCOCC2)CC1(Br)Br` (configuration not stated) was run?
A: 130%

Q: `Cc1cn(CCCNC(=O)C2(C)CC2(Br)Br)cn1` (configuration not stated) was tested. Which Activity [3] did it give?
A: 113%

Q: With `CCOP(=O)(Cc1ccc(C(=O)Nc2ccc(Br)cc2C#N)cc1)OCC` as the compound, how does the Activity [1] read?
A: inactive

Q: And the Activity [3]?
A: 170%
